Counter-ions that a name gives are not always drawn.
Tests used:
[1] = biological target: T1, VEGF Receptor 2 Kinase (VEGFR2) (Homo sapiens, UniProt P35968); experiment: Determination of VEGF receptor 2 kinase (VEGFR2) inhibitory activity (alpha screen); assay type: biochemical; settings: VEGFR2 intracellular domain protein, 25 μM ATP buffer, read-out: inhibitory rate (kinase inhibitory rate of VEGFR2)
T1 construct: made in house; host or cells: SF-21 insect cells, recombinant baculovirus BAC-VEGFR2 (pFASTBAC1)
T1 sequence (P35968 786-1356 limits assumed): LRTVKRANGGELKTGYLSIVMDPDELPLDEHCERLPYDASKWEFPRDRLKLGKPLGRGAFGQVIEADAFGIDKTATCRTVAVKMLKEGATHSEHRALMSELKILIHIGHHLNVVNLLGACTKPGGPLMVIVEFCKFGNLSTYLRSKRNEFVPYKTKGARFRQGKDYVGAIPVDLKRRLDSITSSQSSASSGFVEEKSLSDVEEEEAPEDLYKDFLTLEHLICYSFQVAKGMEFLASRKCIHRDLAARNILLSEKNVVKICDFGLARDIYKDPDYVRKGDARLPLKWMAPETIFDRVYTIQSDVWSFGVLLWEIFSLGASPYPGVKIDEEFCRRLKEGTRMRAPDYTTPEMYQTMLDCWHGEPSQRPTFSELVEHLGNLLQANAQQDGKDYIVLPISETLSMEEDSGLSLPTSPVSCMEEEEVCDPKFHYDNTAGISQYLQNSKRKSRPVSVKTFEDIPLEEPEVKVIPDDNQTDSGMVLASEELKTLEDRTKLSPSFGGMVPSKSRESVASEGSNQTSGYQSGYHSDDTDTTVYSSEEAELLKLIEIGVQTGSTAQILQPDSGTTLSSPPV
Protocol: For cloning of human VEGF receptor 2 (hereinafter to be abbreviated as VEGFR2) gene, PCR was performed using cDNA Libraries Human Placenta (Clontech) as a template. The primer used for PCR was prepared by, based on the information of the base sequence (Genbank Accession AF035121) of VEGFR2 gene, adding a base sequence encoding the flag peptide and a restriction enzyme recognition sequence to the base sequence (2671-4374 of Genbank Accession AF035121) encoding the VEGFR2 intracellular domain, so that a flag tag would be added to the N terminal of the protein. The primer base sequence is shown in the following.
PCR reaction was carried out using a KOD-plus kit (TOYOBO). The obtained PCR product was electrophoresed on an agarose gel (1%), and a DNA fragment amplified by PCR was recovered from the gel and digested with restriction enzymes Sal I and Sph I. The DNA after the restriction enzyme treatment was electrophoresed on an agarose gel (1%), and the obtained DNA fragment was recovered and ligated to the plasmid pFASTBAC1 (Invitrogen) digested with restriction enzymes Sal I and Sph I to give an expression plasmid pFB-VEGFR2. The base sequence of the inserted fragment was confirmed to have matched with the base sequence (2671-4374 of Genbank Accession AF035121) of the VEGFR2 intracellular domain. Furthermore, virus stock BAC-VEGFR2 of the recombinant Baculovirus was prepared using BAC-TO-BAC Baculovirus Expression System (Invitrogen).
SF-21 cells were inoculated into 1 L of Sf-900IISFM medium (Invitrogen) containing 10% fetal calf serum (trace), 50 mg/L Gentamicin (Invitrogen) and 0.1% Pluronic F-68 (Invitrogen) at 1×10^6 cells/ml, and shake culture was performed using a 2 L Erlenmeyer flask at 27° C., 100 rpm. After 24 hr of culture, recombinant Baculovirus BAC-VEGFR2 (13.4 mL) was added, and the culture was continued for 3 days. The culture medium was centrifuged at 2,000 rpm for 5 min to give virus-infected cells. The infected cells were washed with phosphate buffered saline (Invitrogen), centrifuged under the same conditions, and preserved at −80° C. The cryopreserved cells were thawed in ice, suspended in 30 mL of buffer A (Tris buffer, pH 7.4, containing 20% glycerol and 0.15M NaCl (50 mM)) supplemented with Complete Protease Inhibitor (Boehringer), and disrupted three times using a polytron homogenizer (Kinematica) at 20,000 rpm, 30 sec. The disrupt was clarified by centrifugation at 40,000 rpm, 30 min and filtered through a 0.45 μm filter. The filtrate was passed through a column packed with Anti-FLAG M2 Affinity Gel (Sigma Ltd., 4 mL) at a flow rate of about 0.5 mL/min. The column was washed with buffer A and eluted with buffer A containing 100 μg/mL FLAG peptide. The eluate was concentrated by Vivaspin 20 (Viva Science) having a fraction molecular weight of 30K. The concentrate was applied to NAP™ 25 column (Amersham Biosciences) equilibrated with buffer A for buffer exchange. The fractions containing the VEGFR2 intracellular domain protein were collected, glycerol was added to the final concentration of 50% and the fractions cryopreserved at ˜80° C.
The test compound dissolved in dimethyl sulfoxide (DMSO) was diluted with a buffer (50 mM Tris-HCl, pH 7.5, 5 mM MgCl2, 5 mM MnCl2, 2 mM dithiothreitol, 0.01% Tween-20). A buffer (10 μl) containing 50 ng/ml VEGFR2 intracellular domain protein and 250 ng/ml biotin-labeled polypeptide biotinyl-poly-Glu:Tyr (4:1) (CIS Bio International) was added to the compound solution (5 μl). A buffer (10 μl) containing 25 μM ATP was added to the obtained mixture, the mixture was allowed to react at 25° C. for 5 min. Then, 25 μl of a stop solution (100 mM EDTA·2 sodium salt, 62.5 mM HEPES buffer (pH 7.4), 250 mM NaCl, 0.1% bovine serum albumin, 10 μg/ml Streptavidin Donor beads: PerkinElmer for alpha screen assay, 10 μg/ml Anti-phosphotyrosine (P-Tyr-100) Acceptor beads: PerkinElmer for alpha screen assay) was added to quench the reaction. […]

[2] = biological target: T2, PDGFR Alpha Receptor Kinase (PDGFRalpha) (Homo sapiens, UniProt P16234); experiment: Determination of PDGFR alpha receptor kinase (PDGFRalpha) inhibitory activity (alpha screen); assay type: biochemical; settings: PDGFRalpha intracellular domain protein, 25 μM ATP buffer; read-out: IC50 value (PDGFRalpha kinase inhibition)
T2 construct: PDGFRalpha intracellular domain protein (UPSTATE); purchased UPSTATE
T2 sequence (P16234 550-1089 limits assumed): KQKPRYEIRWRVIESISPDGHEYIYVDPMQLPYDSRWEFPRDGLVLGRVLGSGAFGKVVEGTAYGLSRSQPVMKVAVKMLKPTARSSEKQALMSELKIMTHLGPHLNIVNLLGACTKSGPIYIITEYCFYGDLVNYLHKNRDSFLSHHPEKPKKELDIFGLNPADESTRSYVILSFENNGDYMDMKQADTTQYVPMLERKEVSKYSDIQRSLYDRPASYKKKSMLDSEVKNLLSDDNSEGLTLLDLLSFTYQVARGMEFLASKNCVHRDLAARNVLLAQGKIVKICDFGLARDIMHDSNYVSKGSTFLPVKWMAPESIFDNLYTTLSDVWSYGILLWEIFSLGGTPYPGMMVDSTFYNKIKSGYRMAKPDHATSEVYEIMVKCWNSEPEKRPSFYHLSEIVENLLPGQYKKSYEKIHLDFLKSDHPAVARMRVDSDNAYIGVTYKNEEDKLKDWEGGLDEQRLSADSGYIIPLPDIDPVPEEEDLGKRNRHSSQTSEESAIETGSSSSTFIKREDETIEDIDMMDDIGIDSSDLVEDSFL
Protocol: The test compound dissolved in dimethyl sulfoxide (DMSO) was diluted with a buffer (50 mM Tris-HCl, pH 7.5, 5 mM MgCl2, 5 mM MnCl2, 2 mM dithiothreitol, 0.01% Tween-20).
Acceptor beads: PerkinElmer for alpha screen assay) was added to quench the reaction. The reaction solution was stood at 25° C. for 16 hr, and the count was measured using a plate reader·Fusion™ (manufactured by PerkinElmer). The kinase inhibitory rate (%) of the test compound was calculated by the following formula.
(§1) Inhibitory rate(%)=(1−(count of test compound−blank)÷(control−blank))×100
(§2) wherein the count of the solution reacted without addition of the compound is “control” and the count of the solution without addition of the compound and ATP is “blank”.

[3] = biological target: T3, TIE2 Receptor Kinase (TIE2) (Homo sapiens, UniProt Q02763); experiment: Determination of TIE2 receptor kinase (TIE2) inhibitory activity (alpha screen); assay type: biochemical; settings: TIE2 intracellular domain protein, 5 μM ATP buffer; read-out: IC50 value (TIE2 kinase inhibition)
T3 construct: TIE2 intracellular domain protein (UPSTATE); purchased UPSTATE
T3 sequence (Q02763 770-1124 limits assumed): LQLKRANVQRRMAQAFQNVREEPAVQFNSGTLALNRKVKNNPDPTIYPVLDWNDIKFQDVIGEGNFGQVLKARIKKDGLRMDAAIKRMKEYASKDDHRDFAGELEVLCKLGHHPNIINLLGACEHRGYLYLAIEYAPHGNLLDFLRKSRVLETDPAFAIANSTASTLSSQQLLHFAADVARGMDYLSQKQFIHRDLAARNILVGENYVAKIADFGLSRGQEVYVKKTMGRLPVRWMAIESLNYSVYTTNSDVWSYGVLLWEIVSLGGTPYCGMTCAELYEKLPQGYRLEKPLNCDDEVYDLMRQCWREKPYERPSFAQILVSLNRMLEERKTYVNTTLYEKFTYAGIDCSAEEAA
Protocol: The test compound dissolved in dimethyl sulfoxide (DMSO) was diluted with a buffer (50 mM Tris-HCl, pH 7.5, 5 mM MgCl2, 5 mM MnCl2, 2 mM dithiothreitol, 0.01% Tween-20). A buffer (10 μl) containing 50 ng/ml TIE2 intracellular domain protein (UPSTATE) and 250 ng/ml biotin-labeled polypeptide biotinyl-poly-Glu:Tyr (4:1) (CIS Bio International) was added to the compound solution (5 μl). At 5 min after mixing a kinase enzyme, the compound and a biotin-labeled polypeptide, a buffer (10 μl) containing 5 μM ATP was added to the obtained mixture, the mixture was allowed to react at 25° C. for 10 min. Then, 25 μl of a stop solution (100 mM EDTA·2 sodium salt, 62.5 mM HEPES buffer (pH 7.4), 250 mM NaCl, 0.1% bovine serum albumin, 10 μg/ml Streptavidin Donor beads: PerkinElmer for alpha screen assay, 10 μg/ml Anti-phosphotyrosine (P-Tyr-66) Acceptor beads: PerkinElmer for alpha screen assay) was added to quench the reaction. The reaction solution was stood at 25° C. for 16 hr, and the count was measured using a plate reader·Fusion™ (manufactured by PerkinElmer). The kinase inhibitory rate (%) of the test compound was calculated by the following formula.
as §1, §2
Prism (Graphpad Software) according to the nonlinear-regression sigmoidal dose-response (variable slope) analysis method.

[4] = test system: Human umbilical vein endothelial cells (HUVEC); experiment: Vascular endothelial cell growth inhibitory test; assay type: cell-based; settings: VEGF 120 ng/mL, culture 5 days, XTT reagent
Protocol: Human umbilical vein endothelial cells (HUVEC, purchased from KURABO) were cultured in a gas incubator (37° C., CO2 5%) in a vascular endothelial cell medium (Invitrogen) containing 5% fetal calf serum and a basic fibroblast growth factor (2.5 ng/mL). To be specific, HUVEC suspended in the aforementioned vascular endothelial cell medium (Invitrogen) containing 5% fetal calf serum were seeded into a 96 well flat-bottom plate (50 μL, 3000 cells each well). After culturing overnight, various concentrations of test substance and the final concentration (120 ng/mL) of vascular endothelial growth factor (VEGF) were dissolved in a vascular endothelial cell medium (Invitrogen) containing 5% fetal calf serum and added to each well (50 μL). After culturing for 5 days, an XTT reagent (Wako Pure Chemical Industries, Ltd.) was added to each well (10 μL), and reacted in a gas incubator (37° C., CO2 5%) for 2-3 hr. The absorbance at 450 nm was measured by a microtiter plate reader, and the cell growth inhibitory activity was determined.

| SMILES | inhibition at 1 µM [1] | IC50 [2] | IC50 [3] | IC50 ([4]; Homo sapiens, 120 h) | IC50 [4] | IC50 ([4]; hydrochloride) |
| --- | --- | --- | --- | --- | --- | --- |
| O=C(Nc1cccc(C(F)(F)F)c1)Nc1ccc(Oc2ncnc3ccn(CCOCCO)c23)cc1Cl [Example 14, N-[2-chloro-4-({5-[2-(2-hydroxyethoxy)ethyl]-5H-pyrrolo[3,2-d]pyrimidin-4-yl}oxy)phenyl]-N′-[3-(trifluoromethyl)phenyl]urea] | ≥ 90% | ≤ 500 nM | ≤ 5 nM | 33 nM |  |  |
| Cn1ccc2ncnc(Oc3ccc(NC(=O)Nc4cccc(C(F)(F)F)c4)c(F)c3)c21 [Example 29, N-{2-fluoro-4-[(5-methyl-5H-pyrrolo[3,2-d]pyrimidin-4-yl)oxy]phenyl}-N′-[3-(trifluoromethyl)phenyl]urea] |  |  |  |  | 4.4 nM |  |
| Cn1ccc2ncnc(Oc3ccc(NC(=O)Nc4cc(C(F)(F)F)ccn4)c(Cl)c3)c21 [Example 30, N-{2-chloro-4-[(5-methyl-5H-pyrrolo[3,2-d]pyrimidin-4-yl)oxy]phenyl}-N′-[4-(trifluoromethyl)pyridin-2-yl]urea] | ≥ 90% |  |  |  | 2.7 nM |  |
| O=C(Nc1cccc(C(F)(F)F)c1)Nc1ccc(Oc2ncnc3cc[nH]c23)cc1Cl [Example 39, N-[2-chloro-4-(5H-pyrrolo[3,2-d]pyrimidin-4-yloxy)phenyl]-N′-[3-(trifluoromethyl)phenyl]urea] |  |  |  | 4.8 nM |  |  |
| Cn1ccc2ncnc(Oc3ccc(NC(=O)Nc4cc(C(F)(F)F)ccc4F)c(Cl)c3)c21 [Example 40, N-{2-chloro-4-[(5-methyl-5H-pyrrolo[3,2-d]pyrimidin-4-yl)oxy]phenyl}-N′-[2-fluoro-5-(trifluoromethyl)phenyl]urea] | ≥ 90% |  | ≤ 5 nM | 11 nM |  |  |
| Cn1ccc2ncnc(Oc3ccc(NC(=O)Nc4cc(C(F)(F)F)ccn4)c(Cl)c3)c21 [Example 60, N-{2-chloro-4-[(5-methyl-5H-pyrrolo[3,2-d]pyrimidin-4-yl)oxy]phenyl}-N′-[4-(trifluoromethyl)pyridin-2-yl]urea Methanesulfonic Acid Salt] |  |  | ≤ 5 nM |  | 6.5 nM |  |
| O=C(Nc1cccc(C(F)(F)F)c1)Nc1ccc(Oc2ncnc3cc[nH]c23)cc1Cl [Example 116, N-[2-chloro-4-(5H-pyrrolo[3,2-d]pyrimidin-4-yloxy)phenyl]-N′-[3-(trifluoromethyl)phenyl]urea p-toluenesulfonic Acid Salt] | ≥ 90% | ≤ 500 nM | ≤ 5 nM |  | 3.4 nM |  |
| Cc1cc2ncnc(Oc3ccc(NC(=O)Nc4cccc(C(F)(F)F)c4)c(Cl)c3)c2n1C [Example 124, N-{2-chloro-4-[(5,6-dimethyl-5H-pyrrolo[3,2-d]pytimidin-4-yl)oxy]phenyl}-N′-[3-(trifluoromethyl)phenyl]urea] |  |  |  |  | 13 nM |  |
| Cc1cc2ncnc(Oc3ccc(NC(=O)Nc4cccc(C(F)(F)F)c4)c(Cl)c3)c2n1C [Example 134, N-{2-chloro-4-[(5,6-dimethyl-5H-pyrrolo[3,2-d]pyrimidin-4-yl)oxy]phenyl}-N′-[3-(trifluoromethyl)phenyl]urea hydrochloride] |  |  |  |  |  | 5.4 nM |
| Cn1ccc2ncnc(Oc3ccc(NC(=O)Nc4cccc(C(F)(F)F)c4)c(F)c3)c21 [Example 137, N-{2-fluoro-4-[(5-methyl-5H-pyrrolo[3,2-d]pyrimidin-4-yl)oxy]phenyl}-N′-[3-(trifluoromethyl)phenyl]urea Hydrochloride] | ≥ 90% |  | ≤ 5 nM | 3.6 nM |  |  |

Source: US20090137580A1, “Fused Heterocyclic Derivatives and Use Thereof” (Takeda Pharmaceutical Company Limited, priority 2005, published 2009)
